Assay results reported in patent US12611400B2, “Solid lipid nano-composition containing berberine and cinnamonaldehyde effective in treating diabetes, dyslipidemia, and method of preparing the same” (priority 2020, dated 2026).

System: white mouse models of P-407-induced dyslipidemia
Assay: Dyslipidemia regulation effects in P-407-induced endogenous dyslipidemia model in white mice
Type: in vivo
Details: oral 100 mg/kg, 7 days; for Total cholesterol: Reduction in comparison with the model batch: 100 mg/kg
Description: The test on white mice was divided into 5 batches, each batch having 10 animals. The batches were subjected to injection and oral administration as follows: • Batch 1 (biological control): 0.9% saline was intraperitoneally injected at a volume of 0.1 mL/10 g mouse body weight and 0.2 mL/10 g distilled water was orally administered. • Batch 2 (model): 2% P-407 solution was intraperitoneally injected at 200 mg/kg (0.1 mL/10 g), and 0.2 mL/10 g distilled water was orally administered. • Batch 3 (positive control): 2% P-407 solution was intraperitoneally injected at 200 mg/kg (0.1 mL/10 g), and 100 mg/kg (0.2 mL/10 g) atorvastatin was orally administered. • Batch 4: 2% P-407 solution was intraperitoneally injected at 200 mg/kg (0.1 mL/10 g), the composition was orally administered at 0.24 g/kg/day (equivalent to the clinical intended dose), at 0.2 mL/10 g. • Batch 5: 2% P-407 solution was intraperitoneally injected at 200 mg/kg dose (0.1 mL/10 g), the composition was orally administered at dosage 0.72 g/kg/day (3 times as much as the clinical intended dose), at 0.2 mL/10 g.
White mice were subjected to oral administration of distilled water and the sample drug in 7 continuous days before the intraperitoneal injection with P-407 solution. After P-407 injection, the mice were left to starve completely but were free to drink water. After 24 hours from the P-407 injection, all of the mice received carotid arterial blood sampling for TG, TC, and HDL-C quantitative testing. Non-HDL-C levels were calculated based on the following formula: Non-HDL-C=TC−HDL-C (mmol/L) Test Results Total Cholesterol Levels

[1] = white mouse blood, 24 h after P-407 200 mg/kg i.p., n = 10

With `CC(C)c1c(C(=O)Nc2ccccc2)c(-c2ccccc2)c(-c2ccc(F)cc2)n1CC[C@@H](O)C[C@@H](O)CC(=O)O` [Atorvastatin, atorvastatin] the Non-HDL-cholesterol level (Non-HDL-C=TC−HDL-C, white mouse blood, 24 h after P-407, n = 10) was 6.08 ± 0.88 mmol/L, the “Non-HDL-cholesterol: Reduction in comparison with the model” value (P-407 model) was 12.1% and the “Total cholesterol: Reduction in comparison with the model batch” value (P-407 model) was 5.7%. For the same molecule, the “HDL-C level change versus model batch (↑ increase)” value (P-407 model, given with ↑) was “(↑ 19.1%)”, the “Total cholesterol: Reduction in comparison with the model batch” value (P-407 model, listed as atorvastatin) was 5.7% and the “Triglyceride: Reduction in comparison with the model batch” value (P-407 model, negative = increase) was −46.3%. For the same molecule, the HDL-C level [1] was 2.12 ± 0.41 mmol/L, the Total cholesterol level [1] was 8.20 ± 1.01 mmol/L and the Triglyceride level [1] was 9.77 ± 1.05 mmol/L.
